These results are taken from ChEMBL document CHEMBL1126307, “Conformational studies of muscarone analogues: X-ray analysis and molecular mechanics calculations” (J Med Chem, 1992).

Holding throughout (assay type): functional
For assay [1], the species on record is Cavia porcellus. The assay can be described thus: Muscarinic potency was measured in guinea pig ileum. The settings on record: for EC50: Cavia porcellus, Ileum.
For assay [2], the species on record is Rattus norvegicus. The assay can be described thus: Muscarinic potency was measured in rat bladder. The conditions noted are these: for EC50: Rattus norvegicus.
Assay [3] is filed under the species Cavia porcellus. The assay can be described thus: Muscarinic potency was measured in guinea pig atria. The conditions noted are these: for EC50: Cavia porcellus.
The species named for assay [4] is Rattus norvegicus. The assay can be described thus: Muscarinic potency was measured in rat jejunum. The conditions noted are these: for EC50: Rattus norvegicus, Jejunum.
Assay [5] can be described thus: Eudismic ratio was measured.

In general, EC50 refers to the concentration giving half of the maximal effect. A low value points to greater potency.

For the compound `C[C@@H]1O[C@H](C[N+](C)(C)C)CC1=O` [listing 1 of 2 here], the “-Log EC50” value in the assay listed under Cavia porcellus [1] amounted to 9; in the assay filed under Rattus norvegicus [2], 7.28; in the assay listed under Cavia porcellus [3], 8.62; in the assay filed under Rattus norvegicus [4] it was 7.89.

`C[C@H]1OC[C@@H](C[N+](C)(C)C)O1` [listing 1 of 2 here]: the EC50 was 4.17 nM in the assay listed under Cavia porcellus [1], 123 nM in the assay filed under Rattus norvegicus [2], 9.55 nM in the assay listed under Cavia porcellus [3] and 26.3 nM in the assay filed under Rattus norvegicus [4].

As to `C[C@H]1CC[C@@H](C[N+](C)(C)C)O1`, the EC50 in the assay listed under Cavia porcellus [1] was 135 nM; in the assay listed under Rattus norvegicus [2] it was 2400 nM; in the assay filed under Cavia porcellus [3] it was 1320 nM; in the assay listed under Rattus norvegicus [4], 646 nM.

Regarding `C[C@@H]1O[C@H](C[N+](C)(C)C)CS1` [listing 1 of 2 here], the EC50 in the assay listed under Cavia porcellus [1] was 5.89 nM; in the assay listed under Rattus norvegicus [2], 229 nM; in the assay filed under Cavia porcellus [3], 42.7 nM; in the assay listed under Rattus norvegicus [4] it was 28.2 nM.

With `C=C1C[C@@H](C[N+](C)(C)C)O[C@H]1C`, the “-Log EC50” value in the assay listed under Cavia porcellus [1] is 7.38; in the assay listed under Rattus norvegicus [2], 6.13; in the assay filed under Cavia porcellus [3], 6.1; in the assay listed under Rattus norvegicus [4] it was 6.78.

As for `C[C@@H]1O[C@H](C[N+](C)(C)C)CC1=O` [listing 2 of 2 here], the ER in assay [5] was 3.1.

For `C[C@@H]1O[C@H](C[N+](C)(C)C)CS1` [listing 2 of 2 here], the ER in assay [5] is 170.

Regarding `C[C@H]1OC[C@@H](C[N+](C)(C)C)O1` [listing 2 of 2 here], in assay [5], the ER is 59.

For `C[C@@H]1O[C@H](C[N+](C)(C)C)CC1O` (mixture of isomers), the EC50 in the assay listed under Cavia porcellus [1] is 31.6 nM; in the assay listed under Rattus norvegicus [2], 575 nM; in the assay listed under Cavia porcellus [3] it was 58.9 nM; in the assay listed under Rattus norvegicus [4], 155 nM. Also, the ER in assay [5] was 331.

Turning to `C[C@@H]1O[C@H](C[N+](C)(C)C)CS1` (mixture of isomers) [listing 1 of 2 here], the “-Log EC50” value in the assay filed under Cavia porcellus [1] came to 8.23; in the assay filed under Rattus norvegicus [2], 6.64; in the assay filed under Cavia porcellus [3], 7.37; in the assay filed under Rattus norvegicus [4], 7.55.

For `C[C@@H]1O[C@H](C[N+](C)(C)C)CS1` (mixture of isomers) [listing 2 of 2 here], the ER in assay [5] was determined as 170.

Consider `C[C@@H]1O[C@H](C[N+](C)(C)C)CC1=O` (racemic) [listing 1 of 2 here], for which the EC50 in the assay filed under Cavia porcellus [1] was 1 nM; in the assay filed under Cavia porcellus [3], 2.4 nM; in the assay filed under Rattus norvegicus [4] it was 12.9 nM.

Regarding `C[C@H]1OC[C@@H](C[N+](C)(C)C)O1` (racemic) [listing 1 of 2 here], the “-Log EC50” value is given as 8.38 in the assay listed under Cavia porcellus [1], 6.91 in the assay listed under Rattus norvegicus [2], 8.02 in the assay filed under Cavia porcellus [3] and 7.58 in the assay filed under Rattus norvegicus [4].

With `C[C@H]1CC[C@@H](C[N+](C)(C)C)O1` (racemic), the “-Log EC50” value in the assay filed under Cavia porcellus [1] amounted to 6.87; in the assay listed under Rattus norvegicus [2], 5.62; in the assay filed under Cavia porcellus [3], 5.88; in the assay filed under Rattus norvegicus [4], 6.19.

Consider `CN1OC(C[N+](C)(C)C)CC1=O` (racemic) [listing 1 of 2 here], for which the “-Log EC50” value in the assay filed under Cavia porcellus [1] was determined as 7.95; in the assay filed under Rattus norvegicus [2], 6.44; in the assay filed under Cavia porcellus [3], 7.62; in the assay filed under Rattus norvegicus [4], 7.13.

With `C=C1C[C@@H](C[N+](C)(C)C)O[C@H]1C` (racemic), the EC50 was 41.7 nM in the assay filed under Cavia porcellus [1], 741 nM in the assay listed under Rattus norvegicus [2], 794 nM in the assay filed under Cavia porcellus [3] and 166 nM in the assay listed under Rattus norvegicus [4].

As for `CN1OC(C[N+](C)(C)C)CC1=O` (racemic) [listing 2 of 2 here], in assay [5], the ER came to 2.5.

For `C[C@@H]1O[C@H](C[N+](C)(C)C)CC1=O` (racemic) [listing 2 of 2 here], the ER in assay [5] was found to be 3.1.

Turning to `C[C@H]1OC[C@@H](C[N+](C)(C)C)O1` (racemic) [listing 2 of 2 here], the ER in assay [5] is 59.

As for `CN1OC(C[N+](C)(C)C)CC1=O` (stereo in doubt; 4) [listing 1 of 2 here], the EC50 in the assay listed under Cavia porcellus [1] was 11.2 nM; in the assay listed under Rattus norvegicus [2], 363 nM; in the assay listed under Cavia porcellus [3], 24 nM; in the assay filed under Rattus norvegicus [4], 74.1 nM.

In the case of `CN1OC(C[N+](C)(C)C)CC1=O` (stereo in doubt; 4) [listing 2 of 2 here], in assay [5], the ER turned out to be 2.5.

Regarding `C[C@@H]1O[C@H](C[N+](C)(C)C)C[C@H]1O` [MUSCARINE], the EC50 in the assay listed under Cavia porcellus [1] was 31.6 nM; in the assay filed under Rattus norvegicus [2] it was 575 nM; in the assay listed under Cavia porcellus [3], 58.9 nM; in the assay listed under Rattus norvegicus [4] it was 155 nM. In addition, in assay [5], the ER worked out at 331.
